In patent US9102648B1, “Bioavailable diacylhydrazine ligands for modulating the expression of exogenous genes via an ecdysone receptor complex” (Intrexon Corporation, priority 2003, dated 2015):
pEC50: −log10 of the molar value. Like-named read-outs stand apart in the source and are kept apart here.

Biological target: T1, Bombyx mori EcR (VP16 fusion, CVBE switch construct) (Bombyx mori, UniProt P49881)
T1 sequence (P49881 86-606): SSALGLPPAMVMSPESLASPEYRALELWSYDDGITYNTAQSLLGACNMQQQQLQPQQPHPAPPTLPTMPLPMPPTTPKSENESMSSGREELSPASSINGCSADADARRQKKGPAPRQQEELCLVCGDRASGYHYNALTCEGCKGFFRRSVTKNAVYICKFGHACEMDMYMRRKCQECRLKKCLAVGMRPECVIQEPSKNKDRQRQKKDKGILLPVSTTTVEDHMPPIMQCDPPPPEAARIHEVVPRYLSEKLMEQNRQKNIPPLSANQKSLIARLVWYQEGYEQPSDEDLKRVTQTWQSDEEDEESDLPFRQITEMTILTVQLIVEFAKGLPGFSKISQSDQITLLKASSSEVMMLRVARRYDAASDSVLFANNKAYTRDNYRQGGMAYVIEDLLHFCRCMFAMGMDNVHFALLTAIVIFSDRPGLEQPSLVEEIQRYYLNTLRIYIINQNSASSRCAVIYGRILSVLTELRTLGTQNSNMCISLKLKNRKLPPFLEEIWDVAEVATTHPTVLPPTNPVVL
T1 sequence (P19793 1-462 partner): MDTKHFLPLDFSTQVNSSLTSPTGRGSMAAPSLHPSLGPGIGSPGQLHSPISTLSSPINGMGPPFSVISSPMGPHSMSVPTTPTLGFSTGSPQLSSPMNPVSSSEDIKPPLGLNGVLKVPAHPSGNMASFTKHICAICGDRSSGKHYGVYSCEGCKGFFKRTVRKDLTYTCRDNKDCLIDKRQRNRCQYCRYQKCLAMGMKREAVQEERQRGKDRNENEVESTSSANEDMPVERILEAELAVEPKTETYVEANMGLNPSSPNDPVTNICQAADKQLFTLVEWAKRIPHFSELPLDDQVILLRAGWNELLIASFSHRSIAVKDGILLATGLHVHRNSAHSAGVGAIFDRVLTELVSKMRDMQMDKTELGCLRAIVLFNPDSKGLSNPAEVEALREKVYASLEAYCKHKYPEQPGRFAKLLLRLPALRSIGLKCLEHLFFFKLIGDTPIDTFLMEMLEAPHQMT
Experiment: Z3 Assay (HEK-293 cells with CVBE and 6XEcRE LacZ, β-galactosidase reporter)
Settings: for Fold Induction, Z3 Assay, 33 uM: 33 uM ligand; for Fold Induction, Z3 Assay, 33 uM / Fold Induction, Z3 Assay, 3.3 uM: ligand treated / DMSO treated cells; for Fold Induction, Z3 Assay, 3.3 uM: 3.3 uM ligand; for Z3 assay Rel Max FI: maximum fold induction at any concentration relative to that of GS-E ligand; for fold induction at 3.3 µM: HEK293, read-out: Fold Induction, Z3 Assay, 3.3 uM; for fold induction at 33 µM: HEK293, read-out: Fold Induction, Z3 Assay, 33 uM

[1] = read-out: Z3 assay EC50, HEK-293 Z3 cells, β-galactosidase reporter, average of two wells

| SMILES | Fold Induction, Z3 Assay, 33 uM (average of two wells) | pEC50 [1] | Fold Induction, Z3 Assay, 3.3 uM (average of two wells) | Z3 assay Rel Max FI (HEK-293 Z3 cells) | pEC50 | fold induction at 3.3 µM | fold induction at 33 µM |
| --- | --- | --- | --- | --- | --- | --- | --- |
| CC(=O)c1ccc(C(=O)NN(C(=O)c2cc(C(=O)O)cc(C(=O)O)c2)C(C)(C)C)cc1 [RG-100150] | 1 | – | – | – | – | – | – |
| CC(O)c1ccc(C(=O)NN(C(=O)c2cc(F)cc(F)c2)C(C)(C)C)cc1 (centres unmarked) [RG-100342] | 427 | 4.99 | – | – | – | – | – |
| COc1cccc(C(=O)N(NC(=O)c2ccc3c(c2C)OCCO3)C(C)(C)C)c1 [RG-100360] | 891 | 6.59 | 870 | 1.073 | – | – | – |
| Cc1c(C(=O)NN(C(=O)c2ccc(F)cc2)C(C)(C)C)ccc2c1OCCO2 [RG-100425] | 592 | 7.00 | 1128 | 1.180 | – | – | – |
| Cc1c(C(=O)NN(C(=O)c2ccc(F)cc2)C(C)(C)C)ccc2c1OCO2 [RG-100448] | 423 | 5.55 | – | – | – | – | – |
| COc1ccccc1C(=O)N(NC(=O)c1ccc2c(c1)OCCO2)C(C)(C)C [RG-100492] | 143 | 5.09 | – | – | – | – | – |
| COc1cccc(C(=O)NN(C(=O)c2cc(C)cc(C)c2)C(C)(C)C)c1[N+](=O)[O-] [RG-100568] | 1193 | 5.48 | 276 | 0.855 | – | – | – |
| COc1cccc(C(=O)NN(C(=O)c2cc(C)ccc2[N+](=O)[O-])C(C)(C)C)c1C [RG-100569] | 457 | 7.01 | 754 | 0.835 | – | – | – |
| CCc1c(C(=O)NN(C(=O)c2ccccc2OC)C(C)(C)C)ccc2c1OCCO2 [RG-100690] | 475 | 6.62 | 779 | 1.008 | – | – | – |
| CCc1c(C(=O)NN(C(=O)c2cccc(OC)c2)C(C)(C)C)ccc2c1OCCO2 [RG-100691] | 565 | 6.59 | 843 | 0.945 | – | – | – |
| COc1cccc(C(=O)NN(C(=O)c2cccc(C)c2)C(C)(C)C)c1C [RG-100694] | 1288 | 6.41 | 1294 | 1.157 | – | – | – |
| CCc1c(OC)cccc1C(=O)NN(C(=O)c1ccc2c(c1)OCO2)C(C)(C)C [RG-100699] | 415 | 5.68 | – | – | – | – | – |
| CCc1c(OC)cccc1C(=O)NN(C(=O)c1ccccc1OC)C(C)(C)C [RG-100725] | 511 | – | – | – | – | – | – |
| COc1ccc(OC)c(C(=O)N(NC(=O)c2cccc(C)c2C)C(C)(C)C)c1 [RG-100763] | 151 | 5.67 | – | – | – | – | – |
| COc1ccc(C)cc1C(=O)N(NC(=O)c1cccc(OC)c1C)C(C)(C)C [RG-100766] | 474 | 6.76 | 921 | 1.194 | – | – | – |
| COc1cc(C)cc(C(=O)N(NC(=O)c2cccc(OC)c2C)C(C)(C)C)c1 [RG-100767] | 371 | 6.60 | 825 | 0.996 | – | – | – |
| CCc1ccc(C(=O)NN(C(=O)c2cc(C)cc(C)c2)C(C)(C)C)cc1 [RG-102125] | – | – | – | – | 6.76 | – | – |
| CCC(N(NC(=O)c1cccc(C)c1C)C(=O)c1cc(C)cc(C)c1)C(C)(C)C (centres unmarked) [RG-103309, 3,5-dimethyl-benzoic acid N′-(2,3-dimethyl-benzoyl)-N-(1-ethyl-2,2-dimethyl-propyl)-hydrazide] | – | – | – | 0.950 | 7.11 | 1160 | 591 |
| CCOC(=O)C(C)(C)N(NC(=O)c1cccc(OC)c1CC)C(=O)c1cc(C)cc(C)c1 [RG-115025, 2-[N-(3,5-dimethyl-benzoyl)-N′-(2-ethyl-3-methoxy-benzoyl)-hydrazino]-2-methyl-propionic acid ethyl ester] | – | – | – | 0.385 | 6.46 | 269 | 489 |

| SMILES | Fold Induction, Z3 Assay, 33 uM (average of two wells) | pEC50 [1] | Fold Induction, Z3 Assay, 3.3 uM (average of two wells) | Z3 assay Rel Max FI (HEK-293 Z3 cells) | pEC50 | fold induction at 3.3 µM | fold induction at 33 µM |
| --- | --- | --- | --- | --- | --- | --- | --- |
| CCc1c(OC)cccc1C(=O)NN(C(=O)c1c(F)cccc1F)C(C)(C)C [RG-115033] | 388 | 4.79 | 24 | 0.575 | – | – | – |
| CCc1c(OC)cccc1C(=O)NN(C(=O)c1cc(C)cc(C)c1)C(C)(C)C(=O)O [RG-115044, 2-[N-(3,5-Dimethyl-benzoyl)-N′-(2-ethyl-3-methoxy-benzoyl)-hydrazino]-2-methyl-propionic acid] | – | – | – | 1.08 | < 4.30 | 1 | 7 |
| CCc1c(C(=O)NN(C(=O)c2ccccc2)C(C)(C)C)ccc2c1OCOC2 [RG-115046] | 754 | 5.45 | – | – | – | – | – |
| COc1cc(C(=O)N(NC(=O)c2ccc3c(c2C)CCCO3)C(C)(C)C)cc(OC)c1C [RG-115055] | 617 | 7.37 | 573 | 0.936 | – | – | – |
| CCc1c(C(=O)NN(C(=O)c2ccccc2OC)C(C)(C)C)ccc2c1OCOC2 [RG-115065] | 878 | 5.83 | – | – | – | – | – |
| CCc1c(C(=O)NN(C(=O)c2ccc(Cl)cc2OC)C(C)(C)C)ccc2c1OCO2 [RG-115085] | 627 | 6.71 | – | – | – | – | – |
| COc1ccccc1C(=O)N(NC(=O)c1ccc2c(c1C)CCCO2)C(C)(C)C [RG-115102] | 865 | 6.86 | 88 | 0.858 | – | – | – |
| Cc1c(C(=O)NN(C(=O)c2ccc(F)cc2)C(C)(C)C)ccc2c1CCCO2 [RG-115118] | 1160 | 6.63 | 90 | 0.969 | – | – | – |
| CCc1c(C(=O)NN(C(=O)c2cc(OC)c(C)c(OC)c2)C(C)(C)C)ccc2c1OCCO2 [RG-115130] | 930 | 7.44 | 412 | – | – | – | – |
| CCc1c(OC)cccc1C(=O)NN(C(=O)c1cc(C)cc(C)c1)C(C)(C)CO [RG-115143] | 1045 | 5.13 | 111 | 0.844 | – | – | – |
| CCc1c(OC)cccc1C(=O)NN(C(=O)c1cc(C)ccc1[N+](=O)[O-])C(C)(C)C [RG-115162] | 772 | 7.16 | 334 | 0.988 | – | – | – |
| Cc1c(C(=O)NN(C(=O)c2cc(F)cc(F)c2)C(C)(C)C)ccc2c1CCCO2 [RG-115207] | 508 | 6.59 | 354 | 0.923 | – | – | – |
| CCc1c(OC)cccc1C(=O)NN(C(=O)c1cc(C)cc(COC(C)=O)c1)C(C)(C)C [RG-115223] | 1299 | 5.72 | 323 | 0.925 | – | – | – |
| Cc1c(C(=O)NN(C(=O)c2cc(F)c(F)cc2F)C(C)(C)C)ccc2c1CCCO2 [RG-115229] | 1032 | 6.37 | – | – | – | – | – |
| CCc1c(C(=O)NN(C(=O)c2ccccc2OC)C(C)(C)C)ccc2c1OCCO2 [RG-115244] | 816 | 7.07 | 283 | 0.959 | – | – | – |
| CCc1c(OC)cccc1C(=O)NN(C(=O)c1cc(Cl)ccc1OC)C(C)(C)C [RG-115253] | 832 | 6.57 | – | – | – | – | – |
| CCc1c(OC)cccc1C(=O)NN(C(=O)c1cc(Cl)ccc1[N+](=O)[O-])C(C)(C)C [RG-115257] | 691 | 6.69 | 297 | 0.885 | – | – | – |
| CCc1c(OC)cccc1C(=O)NN(C(=O)c1cc(C)cc(C)c1)C(C)(C)C=NO [RG-115258, 2-ethyl-3-methoxy-benzoic acid N′-(3,5-dimethyl-benzoyl)-N′-(2-hydroxyimino-1,1-dimethyl-ethyl)-hydrazide] | – | – | – | 0.882 | 6.19 | 382 | 1120 |
| Cc1c(C(=O)NN(C(=O)c2cccc(F)c2)C(C)(C)C)ccc2c1CCCO2 [RG-115278] | 1225 | 6.59 | 158 | 0.893 | – | – | – |
